Measurements taken from patent publication US20230277553A1, “THERAPEUTIC COMPOSITION OF CURE-PRO COMPOUNDS FOR TARGETED DEGRADATION OF BET DOMAIN PROTEINS, AND METHODS OF MAKING AND USAGE” (CORNELL UNIVERSITY, priority 2020, published 2023).
Entries after “also recorded” stand apart in the source; their conditions may differ.

Experiments:
[1] = target: BRD4 (Homo sapiens, UniProt O60885); test: CURE-PRO-mediated BRD4 degradation, Western blot, HeLa cells; type: cell-based; design: endogenous in cells; host or cells: HeLa; details: 24 h, Western blot
In short: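 HeLa cells treated 24 h with compounds in DMSO (1-10 μM, 10 μM or 100 μM each; paired monomers combined 1:1), optional 15-min pretreatment with pomalidomide, VHL298, Nutlin3a (10 μM) or MG-132/carfilzomib (1 μM). RIPA lysates, 10-20 μg protein immunoblotted for BRD4 with β-actin, ECL detection.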

[2] = tested on: MV-4-11 cells; test: CellTiter-Glo cell viability, MV-4-11 cells; type: cell-based
Method: CellTiter-Glo® 2.0 Cell Viability Assay (Promega) was carried out following the manufacturer's recommendations. Cells were seeded at a density of 1000 cells/well in a white 96 well plates (Corning, #3917) in a total volume of 100 μl with respective monomers, combinations of BRD ligands together with E3 ligase ligands or vehicle control treatment. After a 72 h incubation, 100 ul of the CellTiter-Glo® substrate was added per well and luminescence was read on a Spectramax M5 (Molecular Devices). Dose-response curves were generated using Graphpad Prism software.
MV-4-11 cells (5×104) were treated for 24 hours with the sample compounds solubilized in DMSO. The compounds were added at 1 nM-100 μM each. Cellular viability was determined using the CellTiter-Glo® Luminescent Cell Viability Assay (Promega) described above. FIGS. 19-22 depict the CURE-PRO-mediated loss of cellular viability for BRD monomers (JQ1 derivatives comprising of catechol linkers), and CRBN ligand, 8049 (pomalidomide derivatives comprising boronic acid linkers) combined in a 1:1 ratio.
MV-4-11 cells (1×104) were treated for 72 hours with the compounds solubilized in DMSO. Compounds were added at 10 nM-100 μM each. Cellular viability was determined using the CellTiter-Glo® Luminescent Cell Viability Assay (Promega) described above. FIGS. 47-54 depict the CURE-PRO-mediated loss of cellular viability for BRD monomers (JQ1 derivatives comprising of boronic acid linkers), and CRBN ligands, 8046, 8047 and 8066 (pomalidomide derivatives comprising diol linkers) combined in a 1:1 ratio.

## CCNC(=O)C[C@@H]1N=C(c2ccc(Cl)cc2)c2cc(OCCCCC(=O)Nc3cccc(B(O)O)c3)ccc2-n2c(C)nnc21 [BRD-E20, (3-(5-(((4S)-6-(4-chlorophenyl)-4-(2-(ethylamino)-2-oxoethyl)-1-methyl-4H-benzo[f][1,2,4]triazolo[4,3-a][1,4]diazepin-8-yl)oxy)pentanamido)phenyl)boronic acid]
[1]; 1:1 with 8046, 10 μM each
  BRD4 degradation, co-treatment with CRBN ligand 8046: causes degradation of BRD4; also recorded: Degradation is noted
[1]; 1:1 with 8066, 10 μM each (BRD-E10: 10 and 100 μM)
  BRD4 degradation, co-treatment with CRBN ligand 8066: causes degradation of BRD4; also recorded: Degradation is noted
[2]; MV-4-11, 72 hours, 1:1, 10 nM-100 μM each
  Loss of cellular viability / toxicity, cotreated with cereblon ligands 8046, 8047 and 8066 vs monomers alone: reduced viability; also recorded: increased toxicity

## CCNC(=O)C[C@@H]1N=C(c2ccc(Cl)cc2)c2cc(OCCNC(=O)c3cccc(O)c3O)ccc2-n2c(C)nnc21 [BRD-N25]
[2]; MV-4-11, 24 hours, 1:1 with 8049, 1 nM-100 μM each
  Loss of cellular viability / toxicity, co-dosed with CRBN ligand 8049: concentration-dependent loss in cellular viability; also recorded: increased toxicity

## CCNC(=O)C[C@@H]1N=C(c2ccc(Cl)cc2)c2cc(OCCOCCNC(=O)c3cccc(O)c3O)ccc2-n2c(C)nnc21 [BRD-N39, N-(2-(2-(((4S)-6-(4-chlorophenyl)-4-(2-(ethylamino)-2-oxoethyl)-1-methyl-4H-benzo[f][1,2,4]triazolo[4,3-a][1,4]diazepin-8-yl)oxy)ethoxy)ethyl)-2,3-dihydroxybenzamide]
[1]; 1:1 with 8048, 1-10 μM each
  BRD4 degradation, co-treatment with CRBN ligand 8048: causes degradation of BRD4; also recorded: Degradation is noted
[1]; 1:1 with 8049, 1-10 μM each
  BRD4 degradation, co-treatment with CRBN ligand 8049: no evidence of BRD4 degradation
[1]; BRD monomer alone
  BRD4 degradation, BRD ligand alone: no degradation of BRD4
